Reference: patent US20250051409A1, “MODULATORS OF PHOSPHATIDYLSERlNE DECARBOXYLASE AND USE THEREOF” (THE NATIONAL INSTITUTE FOR BIOTECHNOLOGY IN THE NEGEV LTD., priority 2021, published 2025)
Where two headings read alike, the source gives them in different places. Square brackets hold non-standard residues; d marks the D form. Ends that are not written are not given here. Peptide text beside a SMILES is read from it. Dmt = Cc1cc(O)cc(C)c1C[C@H](N)C(=O)O; Orn = NCCC[C@H](N)C(=O)O

Assays:
A549 lung cancer cell = assay type: cell-based, human
Protocol: (B) Inhibition of PSD activity by the 2F3 (●) or 1C11 (◯) peptide. PSD activity was measured using the DSB-3 method. (C-E) Cell proliferation inhibition following incubation of A549 cells with the indicated mitochondria- or nuclear-targeted peptides for 24 h in a serum-free medium, and cell proliferation was assayed using the SRB method. Results are the means±SEM (n=3). (F) A549 cells were incubated for 90 min with 5 μM of the mitochondria- or nuclear targeted FITC-labelled peptides, immunostained with anti-SMAC antibodies and with DAPI and visualized by confocal microscope for subcellular localization. Arrows indicates nuclear (n=3). Scale bars represent 20
(A) A549 cells were incubated with the indicated concentration of 1C11-HTRA2-derived peptide targeted to the mitochondrion with the targeting sequence added to the N-terminus (N-Ter) or the C-terminus (C-Ter). (B) Mitochondrion targeted 1C11-HTRA2-derived peptide was modified by replacing the three amino acids in the C or the N-terminus of the peptide, or all amino acids in the peptide with the D-confirmation of the amino acid (underlined amino acids)). Following 24 h incubation in a serum-free medium, cell proliferation was assayed using the SRB method. (C) The concentration required for 50% inhibition of cell proliferation (IC50) is presented. Results are the means±SEM (n=3).
A549 (human lung adenocarcinoma epithelial cell), HEK-293T (human embryonic kidney), H1563/CRL-5875 (non-small cell lung cancer adenocarcinoma), H-358 (bronchioalveolar carcinoma), HaCaT (spontaneously transformed aneuploid immortal human skin keratinocyte), and WI-38 (fibroblast-like fetal lung cell) cell lines were purchased from the American Type Culture Collection (ATCC) (Manassas, VA), and were maintained as per ATCC instructions. Cells were maintained in ATCC recommended medium at 37° C. in an incubator with 5% CO2. Cell lines were routinely tested for Mycoplasma contamination. For SMAC overexpression, cells were seeded (200,000 cells/well) on 6-well culture plates and allowed to adhere overnight. These adhered cells were transfected with PVMV3.1-SMAC or empty vector using the JetPRIME transfection reagent (Illkirch, France), according to the manufacturers' instructions. Medium was changed 6 h post transfection, and cells were harvested 48 h post transfection.
Cells were seeded in 96-well cell culture plates (8,000/well) and allowed to grow for 48 h. After washing with PBS, cells were fixed with 10% trichloroacetic acid, and stained with SRB for 20 min. Excess SRB were removed, and cells were washed with 1% acetic acid. SRB extraction was done using 100 mM Tris-base, and absorbance at 510 nm was determined using an Infinite M1000 plate reader (Tecan, Mannedorf, Switzerland).

different cell lines = conditions: cited from earlier work

Compound	IC50 (A549 lung cancer cell; 24 h) [µM]	other results
Cc1cc(O)cc(C)c1C[C@H](NC(=O)[C@H](N)CCCNC(=N)N)C(=O)N[C@@H](CCCN)C(=O)N[C@@H](Cc1ccccc1)C(=O)N[C@@H](C)C(=O)N[C@@H](CC(C)C)C(=O)N[C@@H](CC(C)C)C(=O)N[C@H](C(=O)N[C@@H](CO)C(=O)NCC(=O)N[C@H](C(=O)N[C@@H](CO)C(=O)N[C@@H](CC(=O)O)C(=O)N1CCC[C@H]1C(=O)N[C@@H](CCCNC(=N)N)C(=O)N[C@@H](C)C(=O)N[C@@H](CCCNC(=N)N)C(=O)N[C@H](C(=O)N[C@H](C(=O)N[C@@H](Cc1ccc(O)cc1)C(=O)NCC(=O)N[C@H](C(=O)N1CCC[C@H]1C(=O)N[C@@H](CO)C(=O)N[C@@H](CC(C)C)C(=O)N[C@@H](Cc1c[nH]c2ccccc12)C(=O)N[C@@H](C)C(=O)N[C@@H](CCCNC(=N)N)C(=O)N[C@@H](CC(C)C)C(=O)O)[C@@H](C)O)[C@@H](C)O)C(C)C)[C@@H](C)O)[C@@H](C)O [D-Arg-Dmt-Orn-Phe-1C11] (H-[dR][Dmt][Orn]FALLTSGTSDPRARVTYGTPSLWARL-OH; N-terminus and C-terminus assumed)	89.3 ± 5.49	
CC[C@H](C)[C@H](NC(=O)[C@@H](NC(=O)[C@H](CC(N)=O)NC(=O)[C@H](C)NC(=O)[C@H](CCCCN)NC(=O)[C@H](CC(C)C)NC(=O)[C@H](CC(C)C)NC(=O)[C@H](CC(N)=O)NC(=O)[C@H](CC(=O)O)NC(=O)[C@H](CC(C)C)NC(=O)[C@@H](NC(=O)[C@@H]1CCCN1C(=O)[C@H](CC(C)C)NC(=O)[C@@H](NC(=O)[C@H](CS)NC(=O)[C@@H](NC(=O)[C@H](CC(C)C)NC(=O)[C@H](CCC(N)=O)NC(=O)[C@H](CCC(N)=O)NC(=O)[C@H](Cc1ccccc1)NC(=O)[C@H](Cc1ccccc1)NC(=O)[C@H](CCCN)NC(=O)[C@H](Cc1c(C)cc(O)cc1C)NC(=O)[C@H](N)CCCNC(=N)N)[C@@H](C)O)C(C)C)[C@@H](C)CC)C(C)C)C(=O)N[C@@H](CC(N)=O)C(=O)N[C@@H](CCCCN)C(=O)N[C@@H](CCC(N)=O)C(=O)N[C@@H](CCC(=O)O)C(=O)N[C@@H](Cc1c[nH]cn1)C(=O)O [D-Arg-Dmt-Orn-Phe-1E14] (H-[dR][Dmt][Orn]FFQQLTCVLPILDNLLKANVINKQEH-OH; N-terminus and C-terminus assumed)	> 100	
Cc1cc(O)cc(C)c1C[C@H](NC(=O)[C@H](N)CCCNC(=N)N)C(=O)N[C@@H](CCCN)C(=O)N[C@@H](Cc1ccccc1)C(=O)N1CCC[C@H]1C(=O)N[C@@H](CC(N)=O)C(=O)N[C@@H](CCC(N)=O)C(=O)N[C@@H](CO)C(=O)N[C@@H](CO)C(=O)N[C@@H](CCCNC(=N)N)C(=O)N[C@@H](C)C(=O)N[C@@H](Cc1ccccc1)C(=O)N[C@@H](CCC(N)=O)C(=O)NCC(=O)N[C@H](C(=O)N[C@@H](CC(=O)O)C(=O)N[C@@H](Cc1c[nH]cn1)C(=O)N[C@@H](CO)C(=O)N[C@@H](CO)C(=O)N[C@@H](CC(=O)O)C(=O)N[C@@H](CC(C)C)C(=O)N[C@@H](C)C(=O)N[C@@H](Cc1ccccc1)C(=O)N[C@@H](CC(=O)O)C(=O)N[C@@H](Cc1ccccc1)C(=O)N[C@@H](CC(C)C)C(=O)N[C@@H](CO)C(=O)N[C@@H](CCC(N)=O)C(=O)N[C@@H](CCC(N)=O)C(=O)O)[C@@H](C)O [D-Arg-Dmt-Orn-Phe-2I8] (H-[dR][Dmt][Orn]FPNQSSRAFQGTDHSSDLAFDFLSQQ-OH; N-terminus and C-terminus assumed)	66.8 ± 4.7	
CC[C@H](C)[C@H](NC(=O)[C@@H]1CCCN1C(=O)[C@H](CO)NC(=O)[C@H](CO)NC(=O)[C@@H](NC(=O)[C@H](CO)NC(=O)[C@H](CC(C)C)NC(=O)[C@H](C)NC(=O)[C@H](Cc1ccccc1)NC(=O)[C@H](CCCN)NC(=O)[C@H](Cc1c(C)cc(O)cc1C)NC(=O)[C@H](N)CCCNC(=N)N)[C@@H](C)O)C(=O)N1CCC[C@H]1C(=O)N[C@@H](CO)C(=O)N[C@H](C(=O)N1CCC[C@H]1C(=O)N[C@@H](CCC(N)=O)C(=O)N[C@@H](CO)C(=O)N[C@@H](CCC(N)=O)C(=O)N[C@@H](C)C(=O)N[C@@H](CCC(N)=O)C(=O)N1CCC[C@H]1C(=O)N[C@@H](CCC(N)=O)C(=O)N[C@H](C(=O)NCC(=O)N[C@@H](CO)C(=O)NCC(=O)N[C@@H](C)C(=O)N[C@@H](CO)C(=O)O)[C@@H](C)O)C(C)C [H-(D-Arg)-Dmt-Orn-Phe-2F3] (H-[dR][Dmt][Orn]FALSTSSPIPSVPQSQAQPQTGSGAS-OH; C-terminus assumed)	> 100	
CC(C)C[C@H](NC(=O)[C@H](CCCNC(=N)N)NC(=O)[C@H](C)NC(=O)[C@H](Cc1c[nH]c2ccccc12)NC(=O)[C@H](CC(C)C)NC(=O)[C@H](CO)NC(=O)[C@@H]1CCCN1C(=O)[C@@H](NC(=O)CNC(=O)[C@H](Cc1ccc(O)cc1)NC(=O)[C@@H](NC(=O)[C@@H](NC(=O)[C@H](CCCNC(=N)N)NC(=O)[C@H](C)NC(=O)[C@H](CCCNC(=N)N)NC(=O)[C@@H]1CCCN1C(=O)[C@H](CC(=O)O)NC(=O)[C@H](CO)NC(=O)[C@@H](NC(=O)CNC(=O)[C@H](CO)NC(=O)[C@@H](NC(=O)[C@H](CC(C)C)NC(=O)[C@H](CC(C)C)NC(=O)[C@H](C)NC(=O)[C@H](CCCCN)NC(=O)[C@H](CCCNC(=N)N)NC(=O)[C@@H](CCCNC(=N)N)NC(=O)[C@@H](N)CCCNC(=N)N)[C@@H](C)O)[C@@H](C)O)C(C)C)[C@@H](C)O)[C@@H](C)O)C(=O)O [R-{D-Arg}-RK-1C11] (H-R[dR]RKALLTSGTSDPRARVTYGTPSLWARL-OH; N-terminus and C-terminus assumed)	66.5 ± 3.9	
CC[C@H](C)[C@H](NC(=O)[C@@H](NC(=O)[C@H](CC(N)=O)NC(=O)[C@H](C)NC(=O)[C@H](CCCCN)NC(=O)[C@H](CC(C)C)NC(=O)[C@H](CC(C)C)NC(=O)[C@H](CC(N)=O)NC(=O)[C@H](CC(=O)O)NC(=O)[C@H](CC(C)C)NC(=O)[C@@H](NC(=O)[C@@H]1CCCN1C(=O)[C@H](CC(C)C)NC(=O)[C@@H](NC(=O)[C@H](CS)NC(=O)[C@@H](NC(=O)[C@H](CC(C)C)NC(=O)[C@H](CCC(N)=O)NC(=O)[C@H](CCC(N)=O)NC(=O)[C@H](Cc1ccccc1)NC(=O)[C@H](CCCCN)NC(=O)[C@H](CCCNC(=N)N)NC(=O)[C@@H](CCCNC(=N)N)NC(=O)[C@@H](N)CCCNC(=N)N)[C@@H](C)O)C(C)C)[C@@H](C)CC)C(C)C)C(=O)N[C@@H](CC(N)=O)C(=O)N[C@@H](CCCCN)C(=O)N[C@@H](CCC(N)=O)C(=O)N[C@@H](CCC(=O)O)C(=O)N[C@@H](Cc1c[nH]cn1)C(=O)O [R-{D-Arg}-RK-1E14] (H-R[dR]RKFQQLTCVLPILDNLLKANVINKQEH-OH; N-terminus and C-terminus assumed)	> 100	
CC[C@H](C)[C@H](NC(=O)[C@@H]1CCCN1C(=O)[C@H](CO)NC(=O)[C@H](CO)NC(=O)[C@@H](NC(=O)[C@H](CO)NC(=O)[C@H](CC(C)C)NC(=O)[C@H](C)NC(=O)[C@H](CCCCN)NC(=O)[C@H](CCCNC(=N)N)NC(=O)[C@@H](CCCNC(=N)N)NC(=O)[C@@H](N)CCCNC(=N)N)[C@@H](C)O)C(=O)N1CCC[C@H]1C(=O)N[C@@H](CO)C(=O)N[C@H](C(=O)N1CCC[C@H]1C(=O)N[C@@H](CCC(N)=O)C(=O)N[C@@H](CO)C(=O)N[C@@H](CCC(N)=O)C(=O)N[C@@H](C)C(=O)N[C@@H](CCC(N)=O)C(=O)N1CCC[C@H]1C(=O)N[C@@H](CCC(N)=O)C(=O)N[C@H](C(=O)NCC(=O)N[C@@H](CO)C(=O)NCC(=O)N[C@@H](C)C(=O)N[C@@H](CO)C(=O)O)[C@@H](C)O)C(C)C [R-{D-Arg}-RK-2F3] (H-R[dR]RKALSTSSPIPSVPQSQAQPQTGSGAS-OH; N-terminus and C-terminus assumed)	28.9 ± 5.2	
CC(C)C[C@H](NC(=O)[C@H](CC(=O)O)NC(=O)[C@H](CO)NC(=O)[C@H](CO)NC(=O)[C@H](Cc1c[nH]cn1)NC(=O)[C@H](CC(=O)O)NC(=O)[C@@H](NC(=O)CNC(=O)[C@H](CCC(N)=O)NC(=O)[C@H](Cc1ccccc1)NC(=O)[C@H](C)NC(=O)[C@H](CCCNC(=N)N)NC(=O)[C@H](CO)NC(=O)[C@H](CO)NC(=O)[C@H](CCC(N)=O)NC(=O)[C@H](CC(N)=O)NC(=O)[C@@H]1CCCN1C(=O)[C@H](CCCCN)NC(=O)[C@H](CCCNC(=N)N)NC(=O)[C@@H](CCCNC(=N)N)NC(=O)[C@@H](N)CCCNC(=N)N)[C@@H](C)O)C(=O)N[C@@H](C)C(=O)N[C@@H](Cc1ccccc1)C(=O)N[C@@H](CC(=O)O)C(=O)N[C@@H](Cc1ccccc1)C(=O)N[C@@H](CC(C)C)C(=O)N[C@@H](CO)C(=O)N[C@@H](CCC(N)=O)C(=O)N[C@@H](CCC(N)=O)C(=O)O [R-{D-Arg}-RK-2I8] (H-R[dR]RKPNQSSRAFQGTDHSSDLAFDFLSQQ-OH; N-terminus and C-terminus assumed)	> 100	
ALSTSSPIPSVPQSQAQPQTGSGAS [2F3]		IC50 (A549 lung cancer cell): 19.6 µM
FQQLTCVLPILDNLLKANVINKQEH [1E14]		effect on cell growth (A549 lung cancer cell; targeted to the mitochondria or the nucleus): no effect on cell growth
[dR][Dmt][Orn]F [mtCPP-1]		induction of apoptosis (different cell lines): did not induce apoptosis; toxicity in cell lines (different cell lines): no toxicity
